From ChEMBL document CHEMBL1154554, “Ganomycins A and B, new antimicrobial farnesyl hydroquinones from the basidiomycete Ganoderma pfeifferi” (2000)
≈ marks a conversion by molar mass, not a printed value. Calls of active or inactive are those of the source. The rule behind the calls is not given here.

How the values were obtained:
Escherichia coli = experiment: Antibacterial activity against sEscherichia coli SBUG 13 at 100 ug/disk after 18 hrs by agar diffusion method; assay type: functional; conditions: for zone of inhibition at 100 µg/disc: read-out: IZ
Bacillus subtilis = experiment: Antibacterial activity against Bacillus subtilis SBUG 14 at 100 ug/disk after 18 hrs by agar diffusion method; assay type: functional; conditions: for zone of inhibition at 100 µg/disc: read-out: IZ
Pseudomonas aeruginosa = experiment: Antibacterial activity against Pseudomonas aeruginosa ATCC 15442 at 100 ug/disk after 18 hrs by agar diffusion method; assay type: functional, organism-based
Staphylococcus aureus [1] = experiment: Antibacterial activity against Staphylococcus aureus SG511 at 100 ug/disk after 18 hrs by agar diffusion method; assay type: functional; conditions: for zone of inhibition at 100 µg/disc: read-out: IZ
Serratia marcescens = experiment: Antibacterial activity against sSerratia marcescens SBUG 9 at 100 ug/disk after 18 hrs by agar diffusion method; assay type: functional; conditions: for zone of inhibition at 100 µg/disc: read-out: IZ
Staphylococcus aureus [2] = experiment: Antibacterial activity against Staphylococcus aureus ATCC 6538 at 100 ug/disk after 18 hrs by agar diffusion method; assay type: functional; conditions: for zone of inhibition at 100 µg/disc: ATCC 6538, 18 h, read-out: IZ
Proteus mirabilis = experiment: Antibacterial activity against Proteus mirabilis SBUG 47 at 100 ug/disk after 18 hrs by agar diffusion method; assay type: functional; conditions: for zone of inhibition at 100 µg/disc: read-out: IZ
Staphylococcus aureus [3] = experiment: Antibacterial activity against Staphylococcus aureus ATCC 29213 at 100 ug/disk after 18 hrs by agar diffusion method; assay type: functional; conditions: for zone of inhibition at 100 µg/disc: ATCC 29213, 18 h, read-out: IZ
Micrococcus luteus [4] = experiment: Antibacterial activity against Micrococcus flavus SBUG 16 at 100 ug/disk after 48 hrs by agar diffusion method; assay type: functional; conditions: for zone of inhibition at 100 µg/disc: read-out: IZ
Staphylococcus aureus [5] = experiment: Antibacterial activity against Staphylococcus aureus ATCC 25923 at 100 ug/disk after 18 hrs by agar diffusion method; assay type: functional; conditions: for zone of inhibition at 100 µg/disc: ATCC 25923, 18 h, read-out: IZ
Staphylococcus aureus [6] = experiment: Antibacterial activity against Staphylococcus aureus after 18 hrs by broth microdilution method; assay type: functional
Micrococcus luteus [7] = experiment: Antibacterial activity against Micrococcus flavus SBUG 16 after 18 hrs by broth microdilution method; assay type: functional
Candida albicans = experiment: […] activity against Candida albicans at 100 ug/disk after 18 hrs by agar diffusion method; assay type: functional, organism-based
Candida maltosa = experiment: […] activity against Candida maltosa 100 ug/disk after 18 hrs by agar diffusion method; assay type: functional, organism-based

Compound | Activity (Pseudomonas aeruginosa) | MIC (Staphylococcus aureus [6]) | MIC (Micrococcus luteus [7]) | zone of inhibition at 100 µg/disc (Escherichia coli) | zone of inhibition at 100 µg/disc (Bacillus subtilis) | Activity (Candida albicans) | zone of inhibition at 100 µg/disc (Staphylococcus aureus [1]) | zone of inhibition at 100 µg/disc (Serratia marcescens) | zone of inhibition at 100 µg/disc (Staphylococcus aureus [2]) | zone of inhibition at 100 µg/disc (Proteus mirabilis) | zone of inhibition at 100 µg/disc (Staphylococcus aureus [3]) | zone of inhibition at 100 µg/disc (Micrococcus luteus [4]) | Activity (Candida maltosa) | zone of inhibition at 100 µg/disc (Staphylococcus aureus [5]) | also measured
COC1=C(OC)C(=O)C(C/C=C(\C)CC/C=C(\C)CC/C=C(\C)CC/C=C(\C)CC/C=C(\C)CC/C=C(\C)CC/C=C(\C)CC/C=C(\C)CC/C=C(\C)CCC=C(C)C)=C(C)C1=O | inactive | – | – | – | – | – | – | – | – | – | – | – | – | – | Activity (Escherichia coli): inactive; Activity (Bacillus subtilis): inactive; Activity (Staphylococcus aureus [1]): inactive; Activity (Serratia marcescens): inactive; Activity (Staphylococcus aureus [2]): inactive; Activity (Proteus mirabilis): inactive; Activity (Staphylococcus aureus [3]): inactive; Activity (Micrococcus luteus [4]): inactive; Activity (Staphylococcus aureus [5]): inactive
CC1(C)S[C@@H]2[C@H](NC(=O)[C@H](N)c3ccccc3)C(=O)N2[C@H]1C(=O)O [AMPICILLIN] | – | 0.05 µg/mL (≈ 0.143 µM) | 0.25 µg/mL (≈ 0.715 µM) | – | – | – | – | – | – | – | – | – | – | – | –
C/C(=C\CC/C(C)=C/CC/C(=C/Cc1cc(O)ccc1O)C(=O)O)CO [GANOMYCIN A] | inactive | 25 µg/mL (≈ 69.4 µM) | 2.5 µg/mL (≈ 6.94 µM) | 4 mm | 16 mm | inactive | 24 mm | 15 mm | 19 mm | 15 mm | 16 mm | 25 mm | inactive | 15 mm | –
CC(C)=CCC/C(C)=C/CC/C(=C/Cc1cc(O)ccc1O)C(=O)O [GANOMYCIN B] | inactive | 25 µg/mL (≈ 72.6 µM) | 2.5 µg/mL (≈ 7.26 µM) | 5 mm | 15 mm | inactive | 24 mm | 16 mm | 20 mm | 15 mm | 18 mm | 26 mm | inactive | 17 mm | –
